Experimental data: publication PMC11249012 (Journal of Medicinal Chemistry, 2024)

Test system: macrophage infiltration into 4T1 tumors
Assay: Immunofluorescence of macrophages in 4T1 tumors (F4/80, Arg1)
Format: in vivo, mouse
Protocol: Inhibition of PD-L1 and CD80/CD86 is directly achieved through the immune checkpoint blockade of their receptors using anti-CTLA-4 and anti-PD-1 antibodies.[69],[70]
Primary tumor tissues were fixed using 4% paraformaldehyde and subsequently dehydrated in sucrose solutions ranging from 10 to 30% for approximately 24 h each. The tissues were then embedded in base molds (Fisherbrand—#22363553) containing an optimal cutting temperature (OCT) compound (Fisher Healthcare—#4585). The tissue blocks were placed immediately on dry ice until the OCT compound solidified, and then they were stored at −80 °C. Prior to IF staining, sections of 5–10 μm were obtained using a Leica CM3050 S cryostat and SuperFrost Plus slides (Fisherbrand—#1255015). The tumor sections were then incubated with blocking buffer [phosphate-buffered saline containing 2% bovine serum albumin, 0.3% Triton X-100, 1% FBS, and 10% goat serum] for 1 h at RT. To detect macrophages in the TME, the sections were incubated with a pan-macrophage rat monoclonal antibody F4/80 (Abcam—#6640) diluted in blocking buffer overnight at 4 °C. Sixteen hours later, tissues were washed 3 times with 100 mM Tris–HCl and then incubated with a secondary goat antirat antibody (Invitrogen—#A11081) for 1 h at RT. […] Subsequently, 4′,6-diamidino-2-phenylindole (DAPI; Invitrogen—#D3571) was used to counterstain the nuclei for 5 min at RT. Finally, the slides were mounted using Fluoromount-G medium (Invitrogen—#00495802) and coverslips (Fisher Scientific—#12545E) and imaged with a Zeiss LSM 710 confocal microscope with ×20 objective. Quantification was carried out by QuPath software (version 0.3.2). F4/80+ macrophages and F4/80+ Arg1+ M2 macrophages were classified based on their fluorescence signal.

Structure (SMILES): CCC(CC)(c1ccc(C(=O)NCCCCC(=O)NO)cc1)c1ccc(OCC(O)C(C)(C)C)c(C)n1 (stereo not shown) [ZG-126, 4-(3-(5-(2-Hydroxy-3,3-dimethylbutoxy)-6-methylpyridin-2-yl)pentan-3-yl)-N-(5-(hydroxyamino)-5-oxopentyl)benzamide]
- reduction of the proportion of M2-polarized immunosuppressive macrophages (4T1 tumors): 2 fold
- total macrophage infiltration into 4T1 tumors (F4/80 staining) (Figure 8B): significantly reduced
- percentage of anti-inflammatory M2 macrophages (Arg1 staining) (Figure 8C-E): most efficacious at reducing the percentage of anti-inflammatory M2 macrophages
- reduction of total macrophage infiltration (TNBC (4T1) tumors): 2 fold
